Tests used:
[1] = tested on: guinea pigs; test: learned helplessness test in guinea pigs; type: in vivo; details: guinea pig
From the text: The utility of the compounds for example to treat depression may be shown via a learned helplessness test in guinea pigs, which is used extensively as correlative to antidepressant activity in humans. The learned helplessness test may be carried out as follows: Seventy male Hartley guinea pigs, each weighing about 350–425 gm are fed ad lib, and are housed under a 12-hour light/dark cycle. The procedure consists of two phases: The induction phase and the avoidance training phase. In the induction phase, subjects are placed into standard shuttle cages (20 L×16 W×21 centimeters H) which are fitted with a grid floor. Electrical stimulation (1.25 mA, 10 sec duration) is delivered to the floor of the cage every 90-sec during 1 hour daily sessions. Subjects have no opportunity to escape or to avoid shocks. Induction is conducted for 2 consecutive days.
In avoidance training, testing is also conducted in the shuttle cages, except that the subjects are not returned to the same chamber in which induction had occurred. Additionally, all cages are fitted with a partition with an arch in the center of the cage, through which animals can pass between the left and right halves of the cage. The procedure employed is a standard shuttle avoidance procedure in which a compound, conditioned stimulus (a 10-sec presentation of a tone and turning on of a lamp on the side of the cage that the guinea pig was occupying) serves to indicate presentation of electrical current to the floor of the cage. Shock is presented for a 5 sec period, 5 sec after initiation of the conditioned stimulus. Entry into the opposite side of the shuttle cage via the arched partition prior to shock onset results in the end of the trial (avoidance response). If shock is delivered, entry into the opposite side of the cage results in termination of the shock and CS (escape). Reversal of learned helplessness in the induction subjects correlates to antidepressant activity of the test compound.
Avoidance training, 45-min in duration, is conducted on 2 consecutive days, beginning 48 hr after the final induction session. Seventy subjects are assigned to 1 of 6 groups of 11–12 animals. The groups are as follows:
Groups 2–6 are given induction and avoidance training sessions. Injections are administered immediately following induction sessions and 1 hour prior to avoidance training sessions. A second injection is administered 7–8 hours following the first injection, for a total of 9 injections administered over 5 days. No injections are administered following the final avoidance training session.
Compounds of the present invention may be administered in a volume of 1 mL/kg bwt. Imipramine is dissolved in DI water. The compounds are dissolved in DI water, to which was added a few drops of lactic acid (pH 5.5). […]

[2] = target: T1, 5-HT1B receptors (Homo sapiens, UniProt P28222); test: 5-HT1b binding assay, competition with [3H]-GR125743 on CHO cell membranes; details: CHO membranes expressing 5-HT1B and 5-HT1D receptors
T1 construct: expressed in transfected cells; host or cells: CHO (stably transfected), frozen membrane preparations
From the text: Other assays that may be used to measure for example affinity of compounds of the present invention for 5HT1B and 5HT1D receptors are described in J. Med. Chem 41:1218–1235, 1228 (1998) and J. Med. Chem 42:4981–5001, (1999) and incorporated by reference herein. These assays may be used with some modifications: Frozen membrane preparations of a stably transfected chinese hamster ovary (CHO) cell line expressing 5-HT1B receptors and 5-HT1D receptors are thawed rapidly, briefly vortexed, and diluted in assay buffer (AB) containing 50 mM Tris-HCl, 4 mM MgCl2, 4mM CaCl2, 1 mM EDTA, and adjusted to pH 7.4 with NaOH. Final protein concentrations are −0.185 mg/ml for 5-HT1B, and 0.4 mg/ml for 5-HT1D membranes. Test compounds are evaluated in competition assays using [^3H]-GR125743 (Amersham). The ligand concentration in both assays was 0.27 nM. […] The 5-HT1B and 5-HT1D assays are performed simultaneously on one 96-well assay plate, one drug/compound per plate. Ten serial dilutions (1 uM to 4 pM, final concentration) of compound are prepared in DMSO from 10 mM stock solutions. Incubation mixtures are prepared in quadruplicate in 96-deep well assay plates (Matrix 1 ml). […] The plates are then counted on a Packard TopCount to determine CPM's per well. Ki values are determined for each test compound utilizing the graphic and analytical software package, GraphPad Prism. […]

[3] = target: 5-HT1B and 5HT1D receptors; details: saturation studies, guinea pig cortex membranes; read-out: Kd value of [3H]GR125743; cited from earlier work

T1 sequence (P28222 whole entry): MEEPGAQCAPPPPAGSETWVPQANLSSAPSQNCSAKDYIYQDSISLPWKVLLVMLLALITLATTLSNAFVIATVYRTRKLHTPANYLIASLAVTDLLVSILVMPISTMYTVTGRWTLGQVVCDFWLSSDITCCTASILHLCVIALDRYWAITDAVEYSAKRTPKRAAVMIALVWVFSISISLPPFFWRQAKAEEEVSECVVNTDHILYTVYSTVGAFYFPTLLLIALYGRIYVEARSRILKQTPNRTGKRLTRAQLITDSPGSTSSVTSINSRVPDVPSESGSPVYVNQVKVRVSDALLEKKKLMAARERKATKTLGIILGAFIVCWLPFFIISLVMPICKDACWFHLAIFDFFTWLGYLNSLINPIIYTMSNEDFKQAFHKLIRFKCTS

SMILES | melting point | further results
CN1CCN(c2cccc3c2OC(C(=O)Nc2ccc(N4CCOCC4)cc2)CC3)CC1 (racemic) [Example 75, 8-(4-Methyl-piperazin-1-yl)-chroman-2-carboxylic acid(4-morpholin-4-yl-phenyl)-amide] | 215 to 216 °C | 
CN1CCN(c2cccc3c2OC(C(=O)Nc2ccc(N4CCOCC4)cc2)CC3=O)CC1 (racemic) [Example 78, racemic-8-(4-methyl-piperazin-1-yl)-4-oxo-chroman-2-carboxylicacid (4-morpholin-4-yl-phenyl)-amide] | 215 to 216 °C | 
CN1CCN(c2cccc3c2OC(C(=O)Nc2ccc(N4CCOCC4)cc2)CC3)CC1 (single isomer, unassigned; (+)) [Example 76, (+)-8-(4-Methyl-piperazin-1-yl)-chroman-2-carboxylic acid (4-morpholin-4-yl-phenyl)-amide] | 206 to 207 °C | 
CN1CCN(c2cccc3c2OC(C(=O)Nc2ccc(N4CCOCC4)cc2)CC3)CC1 (single isomer, unassigned; (-)) [Example 77, (−)-8-(4-Methyl-piperazin-1-yl)-chroman-2-carboxylic acid (4-morpholin-4-yl-phenyl)-amide] | 205.5 to 207 °C | 
CCC(=O)N1CCN(c2ccc(NC(=O)c3cc(=O)c4cc(OC)cc(N5CCN(C)CC5)c4o3)cc2)CC1 [Example 44, 6-Methoxy-8-(4-methyl-piperazin-1-yl)-4-oxo-4H-chromene-2-carboxylic acid [4-(4-propionyl-piperazin-1-yl)-phenyl]-amide] |  | activity in the learned helplessness assay for antidepressant/antianxiety activity [1]: demonstrate activity
COc1cc(N2CCN(C)CC2)c2oc(C(=O)Nc3ccc(N4CCN(C(=O)CCO)CC4)cc3)cc(=O)c2c1 [Example 68, 6-Methoxy-8-(4-methyl-piperazin-1-yl)-4-oxo-4H-chromene-2-carboxylic acid {4-[4-(3-hydroxy-propanoyl)-piperazin-1-yl]-phenyl}-amide] | 195 to 197 °C | 
CCS(=O)(=O)N1CCN(c2ccc(NC(=O)c3cc(=O)c4cc(F)cc(N5CCN(C)CC5)c4o3)cc2)CC1 [Example 71, 6-Fluoro-8-(4-methyl-piperazin-1-yl)-4-oxo-4H-chromene-2-carboxylic acid [4-(4-ethanesulfonyl-piperazin-1-yl)-phenyl]-amide] | 233 to 234 °C | activity in the learned helplessness assay for antidepressant/antianxiety activity [1]: demonstrate activity
CCC(=O)N1CCN(c2ccc(NC(=O)c3cc(=O)c4cc(F)cc(N5CCN(C)CC5)c4o3)cc2)CC1 [Example 72, 6-Fluoro-8-(4-methyl-piperazin-1-yl)-4-oxo-4H-chromene-2-carboxylic acid [4-(4-propionyl-piperazin-1-yl)-phenyl]-amide] |  | activity in the learned helplessness assay for antidepressant/antianxiety activity [1]: demonstrate activity
CN1CCN(c2cc(F)cc3c(=O)cc(C(=O)Nc4ccc(N5CCN(C(=O)CCO)CC5)cc4)oc23)CC1 [Example 73, 6-Fluoro-8-(4-methyl-piperazin-1-yl)-4-oxo-4H-chromene-2-carboxylic acid {4-[4-(3-hydroxy-propanoyl)-piperazin-1-yl]-phenyl}-amide] | 195 to 199 °C | 
COc1ccc(NC(=O)c2ccc(-c3ccncc3)c(C)c2)cc1N1CCN(C)CC1 [[^3H]-GR125743] |  | Kd [2]: 0.15 to 0.25 nM; Kd [3]: 0.046 ± 0.004 nM

Now from value to compound, other results behind:

melting point | SMILES | further results
216 °C (dec.) | CN1CCN(c2cccc3c2OC(C(=O)Nc2ccc(N4CCOCC4)cc2)CC3=O)CC1 (single isomer, unassigned) [Example 79, 8-(4-Methyl-piperazin-1-yl)-4-oxo-chroman-2-carboxylic acid (4-morpholin-4-yl-phenyl)-amide(fasterrunning isomer)] | 
215 °C (dec.) | CN1CCN(c2cccc3c2OC(C(=O)Nc2ccc(N4CCOCC4)cc2)CC3=O)CC1 (single isomer, unassigned) [Example 80, 8-(4-Methyl-piperazin-1-yl)-4-oxo-chroman-2-carboxylic acid (4-morpholin-4-yl-phenyl)-amide(slowerrunning isomer).] | 
217 to 218 °C (dec.) | CN1CCN(c2cccc3c(=O)cc(C(=O)Nc4ccc(N5CCOCC5)cc4)oc23)CC1 [Example 1, 8-(4-methyl-1-piperazinyl)-N-[4-(4-morpholinyl)phenyl]-4-oxo-4H-chromene-2-carboxamide] | 
158.1 to 158.8 °C | CN1CCN(c2cccc3c(=O)cc(-c4nc5ccc(N6CCOCC6)cc5o4)oc23)CC1 [Example 21, 8-(4-Methyl-piperazin-1-yl)-2-(6-morpholin-4-yl-benzooxazol-2-yl)-chromen-4-one] | 
248.4 to 249.6 °C | CN1CCN(c2cccc3c(=O)cc(C(=O)Nc4ccc(N5CCOCC5)cc4O)oc23)CC1 [Example 22, 8-(4-Methyl-piperazin-1-yl)-4-oxo-4H-chromene-2-carboxylic acid (2-hydroxy-4-morpholin-4-yl-phenyl)-amide] | 
234 to 236 °C | COc1cc(N2CCN(C)CC2)c2oc(C(=O)Nc3ccc(N4CCOCC4)cc3)cc(=O)c2c1 [Example 31, 6-Methoxy-8-(4-methyl-piperazin-1-yl)-4-oxo-4H-chromene-2-carboxylic acid (4-morpholin-4-yl-phenyl)-amide] | activity in the learned helplessness assay for antidepressant/antianxiety activity [1]: demonstrate activity
